Experiments:
[1] = system: LnCap prostate cancer cells; experiment: Etoposide in Neowater or deionized water, surviving cells by XTT dye uptake, LnCap; format: cell-based, human; conditions: 24 hours incubation, FIG. 1A
Text: (§1) Two human prostate cancer cell lines were examined—LnCap and PC3.

[2] = system: PC3 prostate cancer cells; experiment: Etoposide in Neowater or deionized water, surviving cells by XTT dye uptake, PC3; format: cell-based, human; conditions: PC3, 24 hours incubation, FIG. 1B
Text: as §1

**Q.** What does the source list for `COc1cc([C@@H]2c3cc4c(cc3[C@@H](O[C@@H]3O[C@@H]5CO[C@@H](C)O[C@H]5[C@H](O)[C@H]3O)[C@H]3COC(=O)[C@H]23)OCO4)cc(OC)c1O` [etoposide, Etoposide]?
**A.** proliferation of cancer cells (cell growth) [1]: dose-dependent decrease; proliferation of cancer cells (cell growth) [2]: dose-dependent decrease
